From ChEMBL document CHEMBL3885881, “DrugMatrix”

Species: Rattus norvegicus
Experiment: DrugMatrix - Regimen: Daily Repeat
Format: toxicity, organism-based, Sprague-Dawley
Set-up: regimen Daily Repeat, gender Male, age 6-8 weeks
Conditions: in vivo, po, route oral GAVAGE, vehicle 100 % WATER; for BASOPHIL / EOSINOPHIL / ERYTHROCYTE COUNT / HEMATOCRIT / HEMOGLOBIN / LEUKOCYTE COUNT / LYMPHOCYTE / MEAN CORPUSCULAR HEMOGLOBIN / MEAN CORPUSCULAR HEMOGLOBIN CONCENTRATION / MEAN CORPUSCULAR VOLUME / MONOCYTE / NEUTROPHIL / PLATELET COUNT: tissue Blood; for ALANINE AMINOTRANSFERASE / ALBUMIN / ALKALINE PHOSPHATASE / ASPARTATE AMINOTRANSFERASE / BLOOD UREA NITROGEN / CHLORIDE / CHOLESTEROL / CREATINE PHOSPHOKINASE / CREATININE / GLUCOSE / PHOSPHORUS / POTASSIUM / SODIUM / TOTAL BILIRUBIN / TOTAL PROTEIN: tissue Plasma
[1] = 0 mg/kg, 72 h, dose level Control, time 3 day
[2] = 0 mg/kg, 120 h, dose level Control, time 5 day
[3] = 100 mg/kg, 72 h, dose level Low, time 3 day
[4] = 100 mg/kg, 120 h, dose level Low, time 5 day
[5] = 1000 mg/kg, 72 h, dose level High, time 3 day
[6] = 1000 mg/kg, 120 h, dose level High, time 5 day

Compound: Oc1cccc(O)c1O [PYROGALLOL]
- BASOPHIL [1]: 0%
- EOSINOPHIL [1]: 0.5%
- ERYTHROCYTE COUNT [1]: 5.8 x10E6/uL
- HEMATOCRIT [1]: 35.07%
- HEMOGLOBIN [1]: 14.12 G/DL
- LEUKOCYTE COUNT [1]: 13.7 x10E3/uL
- LYMPHOCYTE [1]: 82.33%
- MEAN CORPUSCULAR HEMOGLOBIN [1]: 24.38 pg
- MEAN CORPUSCULAR HEMOGLOBIN CONCENTRATION [1]: 40.28 G/DL
- MEAN CORPUSCULAR VOLUME [1]: 60.52 fL
- MONOCYTE [1]: 2.67%
- NEUTROPHIL [1]: 14.5%
- PLATELET COUNT [1]: 911.5 x10E3/uL
- ALANINE AMINOTRANSFERASE [1]: 36.83 u/L
- ALBUMIN [1]: 3.75 G/DL
- ALKALINE PHOSPHATASE [1]: 399.83 u/L
- ASPARTATE AMINOTRANSFERASE [1]: 66 u/L
- BLOOD UREA NITROGEN [1]: 14.67 mg/dL
- CHLORIDE [1]: 101.67 MEQ/L
- CHOLESTEROL [1]: 66.33 mg/dL
- CREATINE PHOSPHOKINASE [1]: 139.5 u/L
- CREATININE [1]: 0.92 mg/dL
- GLUCOSE [1]: 175 mg/dL
- PHOSPHORUS [1]: 11.42 mg/dL
- POTASSIUM [1]: 7.03 MEQ/L
- SODIUM [1]: 148.5 MEQ/L
- TOTAL BILIRUBIN [1]: 1.13 mg/dL
- TOTAL PROTEIN [1]: 6.87 G/DL
- BASOPHIL [2]: 0%
- EOSINOPHIL [2]: 0.2%
- ERYTHROCYTE COUNT [2]: 6.02 x10E6/uL
- HEMATOCRIT [2]: 36.48%
- HEMOGLOBIN [2]: 14.38 G/DL
- LEUKOCYTE COUNT [2]: 12.34 x10E3/uL
- LYMPHOCYTE [2]: 83%
- MEAN CORPUSCULAR HEMOGLOBIN [2]: 23.92 pg
- MEAN CORPUSCULAR HEMOGLOBIN CONCENTRATION [2]: 39.44 G/DL
- MEAN CORPUSCULAR VOLUME [2]: 60.66 fL
- MONOCYTE [2]: 3%
- NEUTROPHIL [2]: 13.8%
- PLATELET COUNT [2]: 1190.6 x10E3/uL
- ALANINE AMINOTRANSFERASE [2]: 43 u/L
- ALBUMIN [2]: 3.73 G/DL
- ALKALINE PHOSPHATASE [2]: 393 u/L
- ASPARTATE AMINOTRANSFERASE [2]: 62.33 u/L
- BLOOD UREA NITROGEN [2]: 16.33 mg/dL
- CHLORIDE [2]: 101.67 MEQ/L
- CHOLESTEROL [2]: 65.5 mg/dL
- CREATINE PHOSPHOKINASE [2]: 130.67 u/L
- CREATININE [2]: 0.58 mg/dL
- GLUCOSE [2]: 180.67 mg/dL
- PHOSPHORUS [2]: 11.28 mg/dL
- POTASSIUM [2]: 7.05 MEQ/L
- SODIUM [2]: 148.17 MEQ/L
- TOTAL BILIRUBIN [2]: 0.72 mg/dL
- TOTAL PROTEIN [2]: 6.83 G/DL
- BASOPHIL [3]: 0%
- EOSINOPHIL [3]: 0.5%
- ERYTHROCYTE COUNT [3]: 5.78 x10E6/uL
- HEMATOCRIT [3]: 35.75%
- HEMOGLOBIN [3]: 13.85 G/DL
- LEUKOCYTE COUNT [3]: 11.7 x10E3/uL
- LYMPHOCYTE [3]: 88%
- MEAN CORPUSCULAR HEMOGLOBIN [3]: 24.05 pg
- MEAN CORPUSCULAR HEMOGLOBIN CONCENTRATION [3]: 38.75 G/DL
- MEAN CORPUSCULAR VOLUME [3]: 61.95 fL
- MONOCYTE [3]: 1%
- NEUTROPHIL [3]: 10.5%
- PLATELET COUNT [3]: 1307.5 x10E3/uL
- ALANINE AMINOTRANSFERASE [3]: 36.33 u/L
- ALBUMIN [3]: 3.67 G/DL
- ALKALINE PHOSPHATASE [3]: 323 u/L
- ASPARTATE AMINOTRANSFERASE [3]: 59.33 u/L
- BLOOD UREA NITROGEN [3]: 13 mg/dL
- CHLORIDE [3]: 101.33 MEQ/L
- CHOLESTEROL [3]: 71 mg/dL
- CREATINE PHOSPHOKINASE [3]: 134.67 u/L
- CREATININE [3]: 0.6 mg/dL
- GLUCOSE [3]: 200 mg/dL
- PHOSPHORUS [3]: 13.27 mg/dL
- POTASSIUM [3]: 7.37 MEQ/L
- SODIUM [3]: 149.67 MEQ/L
- TOTAL BILIRUBIN [3]: 0.5 mg/dL
- TOTAL PROTEIN [3]: 6.67 G/DL
- BASOPHIL [4]: 0%
- EOSINOPHIL [4]: 0%
- ERYTHROCYTE COUNT [4]: 6.06 x10E6/uL
- HEMATOCRIT [4]: 36.63%
- HEMOGLOBIN [4]: 14.83 G/DL
- LEUKOCYTE COUNT [4]: 14.27 x10E3/uL
- LYMPHOCYTE [4]: 90.67%
- MEAN CORPUSCULAR HEMOGLOBIN [4]: 24.53 pg
- MEAN CORPUSCULAR HEMOGLOBIN CONCENTRATION [4]: 40.53 G/DL
- MEAN CORPUSCULAR VOLUME [4]: 60.5 fL
- MONOCYTE [4]: 2.33%
- NEUTROPHIL [4]: 7%
- PLATELET COUNT [4]: 1156 x10E3/uL
- ALANINE AMINOTRANSFERASE [4]: 34.67 u/L
- ALBUMIN [4]: 3.8 G/DL
- ALKALINE PHOSPHATASE [4]: 375.67 u/L
- ASPARTATE AMINOTRANSFERASE [4]: 59 u/L
- BLOOD UREA NITROGEN [4]: 14 mg/dL
- CHLORIDE [4]: 103.67 MEQ/L
- CHOLESTEROL [4]: 67.33 mg/dL
- CREATINE PHOSPHOKINASE [4]: 95.67 u/L
- CREATININE [4]: 0.6 mg/dL
- GLUCOSE [4]: 184.67 mg/dL
- PHOSPHORUS [4]: 11.97 mg/dL
- POTASSIUM [4]: 6.8 MEQ/L
- SODIUM [4]: 151.67 MEQ/L
- TOTAL BILIRUBIN [4]: 0.5 mg/dL
- TOTAL PROTEIN [4]: 6.87 G/DL
- BASOPHIL [5]: 0%
- EOSINOPHIL [5]: 0.67%
- ERYTHROCYTE COUNT [5]: 4.74 x10E6/uL
- HEMATOCRIT [5]: 27.07%
- HEMOGLOBIN [5]: 11.3 G/DL
- LEUKOCYTE COUNT [5]: 18.97 x10E3/uL
- LYMPHOCYTE [5]: 64%
- MEAN CORPUSCULAR HEMOGLOBIN [5]: 23.87 pg
- MEAN CORPUSCULAR HEMOGLOBIN CONCENTRATION [5]: 41.93 G/DL
- MEAN CORPUSCULAR VOLUME [5]: 57.07 fL
- MONOCYTE [5]: 1%
- NEUTROPHIL [5]: 34.33%
- PLATELET COUNT [5]: 1411 x10E3/uL
- ALANINE AMINOTRANSFERASE [5]: 107.67 u/L
- ALBUMIN [5]: 3.83 G/DL
- ALKALINE PHOSPHATASE [5]: 223 u/L
- ASPARTATE AMINOTRANSFERASE [5]: 109.33 u/L
- BLOOD UREA NITROGEN [5]: 10.33 mg/dL
- CHLORIDE [5]: 101.67 MEQ/L
- CHOLESTEROL [5]: 67.33 mg/dL
- CREATINE PHOSPHOKINASE [5]: 171 u/L
- CREATININE [5]: 0.63 mg/dL
- GLUCOSE [5]: 206.33 mg/dL
- PHOSPHORUS [5]: 12.3 mg/dL
- POTASSIUM [5]: 6.63 MEQ/L
- SODIUM [5]: 149 MEQ/L
- TOTAL BILIRUBIN [5]: 1.13 mg/dL
- TOTAL PROTEIN [5]: 6.83 G/DL
- BASOPHIL [6]: 0%
- EOSINOPHIL [6]: 0%
- ERYTHROCYTE COUNT [6]: 3.96 x10E6/uL
- HEMATOCRIT [6]: 24.15%
- HEMOGLOBIN [6]: 9.8 G/DL
- LEUKOCYTE COUNT [6]: 13 x10E3/uL
- LYMPHOCYTE [6]: 85.5%
- MEAN CORPUSCULAR HEMOGLOBIN [6]: 24.9 pg
- MEAN CORPUSCULAR HEMOGLOBIN CONCENTRATION [6]: 40.55 G/DL
- MEAN CORPUSCULAR VOLUME [6]: 61.35 fL
- MONOCYTE [6]: 2.5%
- NEUTROPHIL [6]: 12%
- PLATELET COUNT [6]: 1586 x10E3/uL
- ALANINE AMINOTRANSFERASE [6]: 45 u/L
- ALBUMIN [6]: 3.85 G/DL
- ALKALINE PHOSPHATASE [6]: 303 u/L
- ASPARTATE AMINOTRANSFERASE [6]: 67 u/L
- BLOOD UREA NITROGEN [6]: 12 mg/dL
- CHLORIDE [6]: 105 MEQ/L
- CHOLESTEROL [6]: 49.5 mg/dL
- CREATINE PHOSPHOKINASE [6]: 75 u/L
- CREATININE [6]: 0.45 mg/dL
- GLUCOSE [6]: 223.5 mg/dL
- PHOSPHORUS [6]: 12.75 mg/dL
- POTASSIUM [6]: 7.2 MEQ/L
- SODIUM [6]: 148.5 MEQ/L
- TOTAL BILIRUBIN [6]: 0.9 mg/dL
- TOTAL PROTEIN [6]: 7.05 G/DL
